Assay results from PMC8092326 (mBio, 2021).
“And” between values parts separate entries of the source, which are not always exact repeats. Equal entries are not always repeated. “Also recorded” adds a separate entry of the source. Where two headings read alike, the source gives them in different places. *1 amine or outer side, *2 acyl side, *3 side chain or, on linkers, in order; H or OH if unused. Where a SMILES comes first, the peptide text is derived from it. Bridges are numbered along the chain shown (N, C = ends). Roman numbers before positions name the chains, in order. [ ]: non-standard residue; d: D form. Actinocin(9to1) = Cc1c2oc3c(C)ccc(C(=O)[*:1])c3nc-2c(C(=O)[*:2])c(N)c1=O; NMeV = CN[C@H](C(=O)O)C(C)C; Sar = CNCC(=O)O

Assays:
[1] = tested on: SARS-CoV-2 infection of Vero-E6 cells; details: for Screening data: 48 h
[2] = cited from earlier work
[3] = in vitro; details: African green monkey
[4] = target: human ACE2-VLP spike protein interaction (UniProt P0DTC2+Q9BYF1); type: binding, SARS-CoV-2
[5] = tested on: SARS-CoV-2 infection of Vero-E6 cells; assay: Dose-response inhibition of SARS-CoV-2 infection of Vero-E6 cells (24 h, in situ ELISA); type: cell-based; details: for IC50: Severe acute respiratory syndrome coronavirus 2, Vero C1008, 24 h infection, Vero-E6, MOI 0.12, read-out: IC50 (μM) Mean ± SD; for SI (selectivity index, CC50/IC50): Vero-E6 cells
[6] = target: T1, SARS-CoV-2 spike protein (Severe acute respiratory syndrome coronavirus 2, UniProt P0DTC2); assay: biochemical; type: binding
T1 construct: made in house; host or cells: HEK 293 cells

[7] = target: T2, human ACE2 (Homo sapiens, UniProt Q9BYF1); assay: biochemical; type: binding; details: immobilized recombinant human ACE2; ± one SD; read-out: KD (nM) determined by SPR
T2 construct: purchased Assay Matrix; R&D Systems

[8] = target: T3, RBD-mimic1 peptide-ACE2 interaction (Homo sapiens, UniProt Q9BYF1); assay: SPR competition (ABA injection) between compound and RBD-mimic1 peptide for immobilized ACE2; type: binding; details: for inhibition at 1 µM: read-out: 1:1 competition between compound vs RBD-mimic1 peptide at 1 μM
T3 construct: purchased Assay Matrix; R&D Systems (ACE2); Mimotopes, Australia (peptide)

[9] = tested on: Vero-E6 cells
[10] = indicative of published Cmax values, ref not given, read-out: Cmax

human ACE2-VLP spike protein interaction, sequence (Q9BYF1 18-740, one chain of several): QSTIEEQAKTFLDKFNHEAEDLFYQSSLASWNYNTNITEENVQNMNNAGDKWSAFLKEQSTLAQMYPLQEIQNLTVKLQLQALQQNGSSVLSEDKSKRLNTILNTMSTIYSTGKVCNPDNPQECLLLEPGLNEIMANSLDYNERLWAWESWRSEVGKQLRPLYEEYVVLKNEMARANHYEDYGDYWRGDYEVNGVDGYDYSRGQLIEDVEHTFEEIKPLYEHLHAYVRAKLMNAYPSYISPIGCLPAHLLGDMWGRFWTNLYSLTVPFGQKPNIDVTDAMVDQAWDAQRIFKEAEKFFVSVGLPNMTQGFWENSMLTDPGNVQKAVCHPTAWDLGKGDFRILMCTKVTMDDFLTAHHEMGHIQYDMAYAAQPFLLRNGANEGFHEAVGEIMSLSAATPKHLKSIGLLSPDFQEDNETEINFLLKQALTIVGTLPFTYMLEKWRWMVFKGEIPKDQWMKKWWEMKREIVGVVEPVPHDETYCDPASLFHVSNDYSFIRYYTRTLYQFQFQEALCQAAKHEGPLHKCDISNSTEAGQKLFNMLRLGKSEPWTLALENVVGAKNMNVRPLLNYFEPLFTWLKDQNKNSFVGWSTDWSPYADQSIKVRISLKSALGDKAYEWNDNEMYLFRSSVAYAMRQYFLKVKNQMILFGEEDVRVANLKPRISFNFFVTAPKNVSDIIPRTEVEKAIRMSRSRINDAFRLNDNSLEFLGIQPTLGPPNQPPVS
T3 sequence (Q9BYF1 18-740 limits assumed): as the sequence (Q9BYF1 18-740, one chain of several) above
T2 sequence (Q9BYF1 18-805): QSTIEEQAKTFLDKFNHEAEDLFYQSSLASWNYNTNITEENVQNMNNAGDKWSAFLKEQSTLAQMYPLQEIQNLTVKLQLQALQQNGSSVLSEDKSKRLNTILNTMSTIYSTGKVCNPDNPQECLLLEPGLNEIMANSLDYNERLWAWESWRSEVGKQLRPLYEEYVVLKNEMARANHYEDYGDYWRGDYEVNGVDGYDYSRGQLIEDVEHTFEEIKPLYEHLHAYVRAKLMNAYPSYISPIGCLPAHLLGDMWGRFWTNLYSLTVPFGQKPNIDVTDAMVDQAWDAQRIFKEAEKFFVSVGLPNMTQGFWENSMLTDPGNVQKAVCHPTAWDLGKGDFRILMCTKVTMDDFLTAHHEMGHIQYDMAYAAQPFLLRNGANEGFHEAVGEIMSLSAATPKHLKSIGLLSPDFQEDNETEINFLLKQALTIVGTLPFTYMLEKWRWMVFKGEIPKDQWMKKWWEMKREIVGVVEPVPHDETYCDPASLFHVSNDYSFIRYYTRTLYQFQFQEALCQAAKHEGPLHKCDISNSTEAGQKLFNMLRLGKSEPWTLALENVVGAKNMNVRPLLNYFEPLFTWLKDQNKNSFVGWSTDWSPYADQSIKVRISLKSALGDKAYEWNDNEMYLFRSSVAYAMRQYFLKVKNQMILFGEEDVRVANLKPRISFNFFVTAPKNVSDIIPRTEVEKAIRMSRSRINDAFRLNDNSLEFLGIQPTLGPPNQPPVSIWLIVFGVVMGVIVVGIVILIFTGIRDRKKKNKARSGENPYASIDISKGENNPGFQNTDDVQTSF

Row | Compound | Screening result at the highest concentration tested [1] | Cmax [2, 10] [nM] | CC50 [3] [µM] | Kd [7] [nM] | inhibition at 1 µM [8] [%] | 1:1 Competition between compound vs CoV2 VLP [4] | further results
1 | COc1ccc2c(O[C@@H]3C[C@H]4C(=O)N[C@]5(C(=O)NS(=O)(=O)C6CC6)C[C@H]5/C=C\CCCCN(C)C(=O)[C@@H]4C3)cc(-c3nc(C(C)C)cs3)nc2c1C [Simeprevir] | toxic | 2590 | 16.4 ± 0.8 |  |  |  | Toxicity to Vero-E6 cells (in words, discussion) [1]: toxic; Screening data ([1]; 10 μM): 100 μM: toxic, 10 μM: inactive; Screening data ([1]; 100 μM): 100 μM: toxic, 10 μM: inactive; Blocking (%) [4]: 88.6 ± 7.2%
2 | Cc1cc(O)c(C(=O)N[C@@H](C(=O)N[C@@H]2C(=O)N3C(C(=O)O)=C(CSc4nnnn4C)CS[C@H]23)c2ccc(O)cc2)cn1 [Cefpiramide] | active | 88000 | > 1000 |  |  |  | Cytotoxicity in screening at the highest concentration tested [1]: no apparent cytotoxicity; Screening data ([1]; 800 μM): 800 μM: ∼50% active; Cmax ([2]; intravenous, maximum dose 2,000 mg, single dose, read-out: Cmax): 205000 nM; IC50 [5]: > 1500 µM; Activity against SARS-CoV-2 infection in dose-response experiments ([5]; at […]): inactive; Initial SPR screening for binding to the VLP spike protein [6]: binding; Kd [6]: 0.33 µM; Blocking (%) [4]: 81.9% and 81.9 ± 8.4%
3 | N[C@@H](Cc1ccc(O)c(O)c1)C(=O)O [Levodopa] |  |  |  | 13.6 ± 0.97 | 36.4 | 42.1% ± 5.17 | 
4 | Cc1c2oc3c(C)ccc(C(=O)N[C@@H]4C(=O)N[C@H](C(C)C)C(=O)N5CCC[C@H]5C(=O)N(C)CC(=O)N(C)[C@@H](C(C)C)C(=O)O[C@@H]4C)c3nc-2c(C(=O)N[C@@H]2C(=O)N[C@H](C(C)C)C(=O)N3CCC[C@H]3C(=O)N(C)CC(=O)N(C)[C@@H](C(C)C)C(=O)O[C@@H]2C)c(N)c1=O [Dactinomycin] (I: T[dV]P[Sar][NMeV] / II: T[dV]P[Sar][NMeV]; ester I:1-I:C, II:1-II:C; linker I:N-II:N via Actinocin(9to1)) |  |  |  |  |  |  | Initial SPR screening for binding to the VLP spike protein [6]: binding; Blocking (%) [4]: 69.7 ± 1.8%
5 | CCc1c2c(nc3ccc(OC(=O)N4CCC(N5CCCCC5)CC4)cc13)-c1cc3c(c(=O)n1C2)COC(=O)[C@]3(O)CC [Irinotecan] |  |  |  | 825 ± 112 | 100 | 100% ± 9.17 | Toxicity to Vero-E6 cells (in words, discussion) [1]: toxic; Inhibition of the RBD-mimic1 peptide-ACE2 interaction (in words) ([8]; 1:1 ratio at 1 μM): complete inhibition; also recorded: complete blocking
6 | CS(=O)(=O)c1cccc(C[C@H](NC(=O)c2c(Cl)cc3c(c2Cl)CCN(C(=O)c2ccc4ccoc4c2)C3)C(=O)O)c1 [Sodium lifitegrast] | active |  | > 5000 |  |  |  | Cytotoxicity in screening at the highest concentration tested [1]: no apparent cytotoxicity; Cmax ([2]; in blood, indicative of published Cmax values, ref not given, read-out: Cmax in blood): 2.7 ± 2.1 nM; Cmax ([2]; in tears, indicative of published Cmax values, ref not given, read-out: Cmax in tears (converted)): 143000 nM; IC50 [5]: 1300 µM; SI (selectivity index, CC50/IC50) [5]: >3.9; Kd [6]: 0.00192 µM; Blocking (%) [4]: 99.8% and 99.8 ± 6.4%; Cytotoxicity toward Vero-E6 cells [9]: noncytotoxic
7 | COC[C@H]1C[C@@H](c2ncc(-c3ccc4c(c3)COc3cc5c(ccc6nc([C@@H]7CC[C@H](C)N7C(=O)[C@@H](NC(=O)OC)C(C)C)[nH]c65)cc3-4)[nH]2)N(C(=O)[C@H](NC(=O)OC)c2ccccc2)C1 [Velpatasvir] | toxic | 293 ± 61.2 |  | 24.9 ± 4.24 | 61.4 | 68.1% ± 9.44 | Toxicity to Vero-E6 cells (in words, discussion) [1]: toxic; Screening data ([1]; 100 μM): 500 μM: toxic, 100 μM: inactive; Screening data ([1]; 500 μM): 500 μM: toxic, 100 μM: inactive
8 | C[C@H]1O[C@@H](O[C@H]2[C@@H](O)C[C@H](O[C@H]3[C@@H](O)C[C@H](O[C@H]4CC[C@@]5(C)[C@H](CC[C@@H]6[C@@H]5C[C@@H](O)[C@]5(C)[C@@H](C7=CC(=O)OC7)CC[C@]65O)C4)O[C@@H]3C)O[C@@H]2C)C[C@H](O)[C@@H]1O [Digoxin] |  |  |  | 1250 ± 97.2 | 27.6 | 31.5% ± 4.55 | 
9 | C[C@H]1O[C@@H](O[C@H]2[C@@H](O)C[C@H](O[C@H]3[C@@H](O)C[C@H](O[C@H]4CC[C@@]5(C)[C@H](CC[C@@H]6[C@@H]5CC[C@]5(C)[C@@H](C7=CC(=O)OC7)CC[C@]65O)C4)O[C@@H]3C)O[C@@H]2C)C[C@H](O)[C@@H]1O [Digitoxin] |  |  |  | 1480 ± 87.6 | 25.1 | 23.6% ± 4.25 | 
10 | CC1(C)CCC(CN2CCN(c3ccc(C(=O)NS(=O)(=O)c4ccc(NCC5CCOCC5)c([N+](=O)[O-])c4)c(Oc4cnc5[nH]ccc5c4)c3)CC2)=C(c2ccc(Cl)cc2)C1 [Venetoclax] | toxic | 2400 ± 1300 | 4.9 ± 2.2 | 290 ± 31.1 | 66.3 | 69.1% ± 7.31 | Screening result at lower concentrations [1]: inactive; Screening data ([1]; 10 μM): 10 μM: 40 % active
11 | CC#CC(=O)N1CCC[C@H]1c1nc(-c2ccc(C(=O)Nc3ccccn3)cc2)c2c(N)nccn12 [Acalabrutinib] | toxic | 1770 | 406 ± 21.2 | 25.7 ± 0.91 | 77.4 | 81.2% ± 12.9 | Screening data ([1]; 100 μM): 100 μM: inactive; IC50 [5]: 184 µM; SI (selectivity index, CC50/IC50) [5]: 2.2
12 | Cc1ccc(NC(=O)C2(c3ccc4c(c3)OC(F)(F)O4)CC2)nc1-c1cccc(C(=O)O)c1 [Lumacaftor] | active | 5420 | 314 ± 22.7 |  |  |  | Cytotoxicity in screening at the highest concentration tested [1]: no apparent cytotoxicity; IC50 [5]: 84 ± 3.7 µM; SI (selectivity index, CC50/IC50) [5]: 3.7; Kd [6]: 1.51 µM; Blocking (%) [4]: 71.4 ± 3.1%
13 | CO[C@H]1C[C@@H]2CC[C@@H](C)[C@@](O)(O2)C(=O)C(=O)N2CCCC[C@H]2C(=O)O[C@H]([C@H](C)C[C@@H]2CC[C@H](n3cnnn3)[C@H](OC)C2)CC(=O)[C@H](C)/C=C(\C)[C@@H](O)[C@@H](OC)C(=O)[C@H](C)C[C@H](C)/C=C/C=C/C=C/1C [Zotarolimus] |  |  |  | 2760 ± 178 | 69.4 | 71.6% ± 6.47 | 
14 | Epigallocatechin-3-gallate |  |  |  |  |  | 33.8% ± 4.67 | 1:1 competition between compound vs RBD-mimic1 peptide at 1 μM ([8]; 1:1 ratio at 1 μM, immobilized ACE2): 28.9% ± 1.43
15 | Cc1ccc(C(=O)Nc2ccc(S(=O)(=O)O)c3cc(S(=O)(=O)O)cc(S(=O)(=O)O)c23)cc1NC(=O)c1cccc(NC(=O)Nc2cccc(C(=O)Nc3cc(C(=O)Nc4ccc(S(=O)(=O)O)c5cc(S(=O)(=O)O)cc(S(=O)(=O)O)c45)ccc3C)c2)c1 [Suramin] |  | 1890 | > 1000 |  |  |  | Antiviral potency [1]: 100%; IC50 [5]: 46.2 ± 1.6 µM; SI (selectivity index, CC50/IC50) [5]: >21.6
16 | COc1cc(-c2ccc(/N=N/c3ccc4c(S(=O)(=O)O)cc(S(=O)(=O)O)c(N)c4c3O)c(OC)c2)ccc1/N=N/c1ccc2c(S(=O)(=O)O)cc(S(=O)(=O)O)c(N)c2c1O [Chicago sky blue] |  |  |  | 349 ± 29.8 | 2.47 | 7.29% ± 1.64 | 
17 | COC(=O)N[C@H](C(=O)N1CC2(CC2)C[C@H]1c1ncc(-c2ccc3c(c2)C(F)(F)c2cc(-c4ccc5nc([C@@H]6[C@H]7CC[C@H](C7)N6C(=O)[C@@H](NC(=O)OC)C(C)C)[nH]c5c4)ccc2-3)[nH]1)C(C)C [Ledipasvir] |  | 406 | > 1000 | 417 ± 50.7 | 79.4 | 84.9% ± 7.3 | Toxicity to Vero-E6 cells (in words, discussion) [1]: toxic; Screening data ([1]; 400 μM): 400 μM: inactive
